These results are taken from PubChem BioAssay (NCI).

Test systems include ACHN renal; HCT-15 colon; LOX IMVI melanoma; M14 melanoma; MALME-3M melanoma; NCI-H226 lung; NCI-H522 lung; RPMI-8226 leukemia; SF-539 CNS; SK-OV-3 ovarian; SW-620 colon; PC-3 prostate.
Test in all cases: NCI tumour cell line growth inhibition, 48 h

Molecules are shown by their SMILES.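 Dose response: 5 concentrations. Exposure: 48 h. Format: 96-well plates. Endpoint: linear interpolation; highest concentration if not reached. TGI is the concentration that stops growth completely.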 Where only a bound is given, the exact number is not on record here.

Turning to `CCOC(=O)/C(=C\c1c(C)[nH]c2ccccc12)P(=O)(OCC)OCC`, the TGI with ACHN renal, with HCT-15 colon, in the assay with LOX IMVI melanoma, in the assay on M14 melanoma, with MALME-3M melanoma and with NCI-H226 lung was more than 100 µM in each case. Also, the TGI in the assay with NCI-H522 lung, with RPMI-8226 leukemia, in the assay on SF-539 CNS, with SK-OV-3 ovarian and in the assay with SW-620 colon was more than 100 µM throughout.
Regarding `CCOc1nc2sc3c(c2c(=O)n1CCSSCCn1c(OCC)nc2sc4c(c2c1=O)CCCC4)CCCC3`, the TGI in the assay with ACHN renal, with HCT-15 colon, with LOX IMVI melanoma, with M14 melanoma, in the assay on MALME-3M melanoma and in the assay with NCI-H226 lung was more than 100 µM in each case. The TGI with PC-3 prostate, with RPMI-8226 leukemia, in the assay with SF-539 CNS, with SK-OV-3 ovarian and with SW-620 colon was more than 100 µM throughout.
With `CN1N=C(c2ccccc2)c2cc(Cl)ccc2N=C1N/N=C/c1ccc(N(C)C)cc1`, the TGI with ACHN renal, in the assay on HCT-15 colon, with M14 melanoma, in the assay on NCI-H226 lung, in the assay on NCI-H522 lung and in the assay on PC-3 prostate was more than 100 µM throughout. Also, the TGI in the assay on RPMI-8226 leukemia, with SF-539 CNS, with SK-OV-3 ovarian and in the assay with SW-620 colon was more than 100 µM each time.
In the case of `CCOC(=O)c1nc2cc(F)cc(F)c2[nH]c1=O`, the TGI with ACHN renal, in the assay with HCT-15 colon, in the assay with LOX IMVI melanoma, in the assay on M14 melanoma, in the assay with NCI-H226 lung and in the assay on PC-3 prostate was more than 100 µM throughout. Moreover, the TGI with RPMI-8226 leukemia, with SF-539 CNS, in the assay with SK-OV-3 ovarian and in the assay on SW-620 colon was more than 100 µM each time.
Turning to `Cc1ccc(O)c(C(c2cc(C)ccc2O)c2cc([N+](=O)[O-])ccc2O)c1`, the TGI in the assay with ACHN renal is 27.1 µM; in the assay on HCT-15 colon, 36.1 µM; in the assay with LOX IMVI melanoma it was more than 100 µM; in the assay on M14 melanoma it was 24.5 µM; in the assay with NCI-H226 lung it was 55.8 µM; in the assay on NCI-H522 lung it was 30 µM. Besides, the TGI came out at 21.3 µM in the assay with PC-3 prostate; 50.6 µM in the assay with RPMI-8226 leukemia; 33.9 µM in the assay on SF-539 CNS; 37 µM with SK-OV-3 ovarian; 67 µM in the assay on SW-620 colon.
`COc1nc2c(c(=O)[nH]1)N=C(c1ccc(Cl)cc1)CC(c1ccccc1)N2` (stereo not given): the TGI in the assay on ACHN renal is 52.3 µM; in the assay on HCT-15 colon, 64.6 µM; in the assay on LOX IMVI melanoma it was 57.1 µM; with M14 melanoma it was 43 µM; with NCI-H226 lung, more than 100 µM; in the assay on NCI-H522 lung, 48.6 µM. The TGI is more than 100 µM with PC-3 prostate, 65.8 µM in the assay on RPMI-8226 leukemia, 42.1 µM in the assay on SF-539 CNS and more than 100 µM in the assay on SW-620 colon.
For the molecule `N[C@H]1CCN(c2c(F)cc3c(=O)c(C(=O)O)cn4c3c2Oc2c-4ccc3c2ccc2ccccc23)C1`, the TGI was more than 24.4 µM with ACHN renal; more than 51.3 µM in the assay with HCT-15 colon; 22.9 µM in the assay with LOX IMVI melanoma; more than 100 µM in the assay with M14 melanoma; more than 100 µM in the assay on MALME-3M melanoma; more than 100 µM with NCI-H226 lung. For the same molecule, the TGI in the assay with PC-3 prostate is more than 47.3 µM; in the assay on RPMI-8226 leukemia, 4.11 µM; in the assay with SF-539 CNS, more than 100 µM; in the assay with SW-620 colon it was more than 100 µM.
`C/C(=N/N)c1sc(-c2nc(C)c(/C(C)=N\N)s2)nc1C`: the TGI is more than 100 µM with ACHN renal; more than 60.8 µM with HCT-15 colon; more than 75.2 µM in the assay with LOX IMVI melanoma; more than 100 µM in the assay with M14 melanoma; more than 100 µM with MALME-3M melanoma; more than 100 µM with NCI-H226 lung. The TGI in the assay on NCI-H522 lung was more than 100 µM; in the assay on RPMI-8226 leukemia, more than 63.9 µM; in the assay on SF-539 CNS, more than 100 µM; in the assay on SK-OV-3 ovarian, more than 100 µM; in the assay with SW-620 colon, more than 100 µM.
`O=C1c2c(O)cccc2Cc2cc(CO)cc(O)c21`: the TGI is 12.4 µM in the assay on ACHN renal; 11.3 µM in the assay with HCT-15 colon; 10.9 µM in the assay on M14 melanoma; 5.37 µM in the assay with MALME-3M melanoma; 17.3 µM in the assay on NCI-H226 lung; 4.28 µM with PC-3 prostate. Further, the figures for the TGI in the assay on RPMI-8226 leukemia and in the assay with SW-620 colon were 7.34 µM and more than 100 µM, respectively.
For `CCN1C/C(=C\c2ccc(Cl)cc2)c2[nH]c(=O)c(C#N)c(-c3ccc(Cl)cc3)c2C1`, the TGI in the assay on ACHN renal, in the assay with HCT-15 colon, with LOX IMVI melanoma, in the assay on M14 melanoma, with MALME-3M melanoma and with NCI-H226 lung was more than 100 µM in each case. For the same molecule, the TGI in the assay on PC-3 prostate, with RPMI-8226 leukemia, in the assay with SF-539 CNS, in the assay with SK-OV-3 ovarian and with SW-620 colon was more than 100 µM each time.
For the molecule `CC1OC(CC2C=CCc3c(O)c4c(c(O)c32)C(=O)c2ccccc2C4=O)CC(NC(=O)C(F)(F)F)C1O` (stereo not given), the TGI with ACHN renal was 25.1 µM; in the assay with HCT-15 colon, 55.9 µM; with LOX IMVI melanoma, 20.6 µM; in the assay on M14 melanoma it was 16.1 µM; with MALME-3M melanoma it was 10.1 µM; in the assay with NCI-H226 lung, 31.6 µM. For the same molecule, the TGI is 44.9 µM with NCI-H522 lung; 28 µM with RPMI-8226 leukemia; 15 µM with SF-539 CNS; 24.6 µM with SK-OV-3 ovarian; 81.5 µM in the assay with SW-620 colon.
As to `O=C(CCN1CCCC1)c1ccc(Oc2ccc(F)cc2)cc1`, the TGI with ACHN renal is more than 100 µM; in the assay on HCT-15 colon, more than 100 µM; in the assay on LOX IMVI melanoma, more than 100 µM; in the assay on M14 melanoma, 99.5 µM; in the assay on MALME-3M melanoma, more than 100 µM; with NCI-H226 lung, more than 100 µM. Besides, the TGI in the assay on PC-3 prostate, in the assay on SF-539 CNS, in the assay on SK-OV-3 ovarian and in the assay with SW-620 colon was more than 100 µM each time.
Take `Nn1c(CCCCCCCCc2n[nH]c(=S)n2N)n[nH]c1=S`: the TGI with ACHN renal, with HCT-15 colon, in the assay with M14 melanoma, with MALME-3M melanoma, in the assay on NCI-H226 lung and with NCI-H522 lung was more than 100 µM each time. The TGI in the assay with PC-3 prostate, in the assay on RPMI-8226 leukemia, in the assay with SF-539 CNS, in the assay on SK-OV-3 ovarian and in the assay with SW-620 colon was more than 100 µM throughout.
